Data as given in patent publication US20030232087A1, “Bioactive agent release coating with aromatic poly(meth)acrylates” (priority 2002, published 2003).

What was measured:
[1] = Bioactive Agent Release Assay, β-estradiol from coated stents; type: physicochemical; details: pEVA/pBMA 14/86% (w/w), coated at 0, 20, 30 or 40% relative humidity at 22° C.; PBS, 37° C.; FIG. 3
Method: A polymer coating solution containing poly(ethylene-co-vinylacetate) with a vinyl acetate concentration of 33% (w/w) and poly(n-butyl methacrylate) was prepared in 5 tetrahydrofuran at a polymer ratio of 14/86% (w/w), respectively. β-estradiol was added to the polymer coating solution after dissolution of the polymer in order to provide a coating composition of Applicant's above-captioned copending application in the form a one part system The bioactive agent/polymer ratio of the β-estradiol containing polymer solution was 30/70% (w/w) at a concentration of 10 mg/ml.
Eighteen-millimeter long, electropolished stainless steel stents with a 2 mm outer diameter were fabricated (Laserage Technology Corporation, Waukegan Ill.). […]
(§1) A suitable Bioactive Agent Release Assay, as described herein, can be used to determine the extent and rate of bioactive agent release under physiological conditions. In general it is desirable that less that 50% of the total quantity of the bioactive agent be released in the first 24 hours. It is frequently desirable for quantities of bioactive agent to be released for a duration of at least 30 days.
Except as otherwise provided herein, each coated stent was placed in an amber vial with 1.6 mls of PBS. […] The concentration of β-estradiol in each PBS sample was determined using UV spectroscopy.

[2] = Bioactive Agent Release Assay, dextran-TRITC from coated discs with polymer topcoat; type: physicochemical; details: pEVA (33% vinyl acetate)/pBMA topcoat coated at 48% relative humidity compared with 10% relative humidity; PBS, 37° C.; FIG. 2
Method: Two solutions were prepared in order to provide a coating composition of Applicant's copending application in the form of a two part system. The first solution was an aqueous solution containing the bioactive agent, dextran-TRITC, at a concentration of 15 mg/ml. The second solution contained poly(ethylene-co-vinylacetate) with a vinyl acetate concentration of 33% (w/w) and poly(n-butyl methacrylate), with approximate weight average molecular weight of 337 kilodaltons. The poly(n-butyl methacrylate) and poly(ethylene-co-vinylacetate) were purified by extraction with organic solvents to remove impurities, e.g., monomer residues. The polymers of the second solution were dissolved in tetrahydrofuran at a concentration of 10 mg/ml. […]
as §1, with “as describe” for “as described”, “less than” for “less that”
Except as otherwise provided herein, each coated disc was placed in an amber vial with 4 mls of PBS. […] The concentration of bioactive agent in each PBS sample was determined using UV spectroscopy. […]

| Compound | β-estradiol rate of release from coating [1] | release rate of bioactive agent from composite coating [2] |
| --- | --- | --- |
| C[C@]12CC[C@@H]3c4ccc(O)cc4CC[C@H]3[C@@H]1CC[C@@H]2O [β-estradiol] | different humidity level conditions can be used to control the β-estradiol rate of release | – |
| tetramethylrhodamine isothiocyanate-Dextran [dextran-TRITC] | – | faster rate |
